Values quoted from earlier work in patent US20260007780A1, “LIQUID VEHICLE FORMULATION FOR ENTEROGRAPHY EXAMINATION” (priority 2008, published 2026).

solubility in water: practically insoluble in water
SMILES: CC(=O)Nc1c(I)c(NC(C)=O)c(I)c(C(=O)O)c1I [Diatrizoic acid, diatrizoic acid]
